The results in this text go back to US12122761B2, “2-azaspiro[3.4]octane derivatives as M4 agonists” (NOVARTIS AG, priority 2019, dated 2024).

What is called EC50 is the midpoint of the concentration-response curve.

In experiment [1] the target is T1, human cloned CHRM3 receptor (M3_CHO cells) (Homo sapiens, UniProt P20309).
T1 construct: expressed in transfected cells; host or cells: CHO-K1
Nature of the experiment: CHRM3 Ca++ Flux Assay (agonist mode, FDSS 7000EX). Type of experiment: cell-based. The note with it: for Emax: Percent Activity measured to EC100 of Carbachol, read-out: M3 FDSS PA; for EC50: agonist mode, geometric mean if tested more than once, read-out: M3 FDSS EC50. The gist of the method: (§1)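 Agonist-mode calcium flux: 11-point dose responses, triplicate wells, fluorescence followed for 3 minutes. Cells are M3_CHO or M5_CHO lines (human receptors) with Ca++ indicator in probenecid-containing HEPES/HBSS buffer. Percent activity is referenced to carbachol EC100, and curves come from four-parameter nonlinear regression.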

The target in experiment [2] is T2, human cloned CHRM5 receptor (M5_CHO) (Homo sapiens, UniProt P08912).
T2 construct: expressed in transfected cells; host or cells: CHO (M5_CHO)
T2 sequence (P08912 1-532): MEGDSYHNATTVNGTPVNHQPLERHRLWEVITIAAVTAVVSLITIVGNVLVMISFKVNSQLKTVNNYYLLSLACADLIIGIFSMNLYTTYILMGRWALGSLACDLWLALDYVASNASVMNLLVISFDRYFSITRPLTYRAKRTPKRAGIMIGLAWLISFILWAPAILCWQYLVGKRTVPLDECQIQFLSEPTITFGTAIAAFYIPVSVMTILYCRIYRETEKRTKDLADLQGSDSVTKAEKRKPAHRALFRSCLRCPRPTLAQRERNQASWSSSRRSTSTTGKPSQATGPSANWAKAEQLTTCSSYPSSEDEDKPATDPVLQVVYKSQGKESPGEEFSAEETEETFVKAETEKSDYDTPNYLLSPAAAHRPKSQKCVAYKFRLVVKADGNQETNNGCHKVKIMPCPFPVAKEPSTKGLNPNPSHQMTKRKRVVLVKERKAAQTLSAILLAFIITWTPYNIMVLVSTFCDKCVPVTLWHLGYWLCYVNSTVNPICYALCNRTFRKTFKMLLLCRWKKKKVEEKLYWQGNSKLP
Put plainly: CHRM5 Ca++ Flux Assay (agonist mode, FDSS 7000EX). The conditions noted are these: for Emax: Percent Activity measured to EC100 of Carbachol, read-out: M5 FDSS PA; for EC50: agonist mode, geometric mean if tested more than once, read-out: M5 FDSS EC50. Type of experiment: cell-based. The gist of the method: as §1

T1 sequence (P20309 whole entry): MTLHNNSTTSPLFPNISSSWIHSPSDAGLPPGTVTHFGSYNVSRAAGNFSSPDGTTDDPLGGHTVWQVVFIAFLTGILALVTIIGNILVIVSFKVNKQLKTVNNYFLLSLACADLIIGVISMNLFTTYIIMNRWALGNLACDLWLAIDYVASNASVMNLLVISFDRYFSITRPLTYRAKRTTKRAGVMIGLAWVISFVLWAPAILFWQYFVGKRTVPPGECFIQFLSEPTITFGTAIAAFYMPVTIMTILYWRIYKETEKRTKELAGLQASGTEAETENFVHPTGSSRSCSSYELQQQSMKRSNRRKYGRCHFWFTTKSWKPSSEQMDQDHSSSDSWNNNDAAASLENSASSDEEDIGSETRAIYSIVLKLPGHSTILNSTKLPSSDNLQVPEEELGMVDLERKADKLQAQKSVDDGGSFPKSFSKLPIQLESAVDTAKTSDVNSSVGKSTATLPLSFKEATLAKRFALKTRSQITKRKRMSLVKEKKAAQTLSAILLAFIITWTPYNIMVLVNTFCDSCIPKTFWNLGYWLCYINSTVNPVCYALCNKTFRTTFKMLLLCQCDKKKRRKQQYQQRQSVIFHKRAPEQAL

Turning to `O=C(C1COC1)N1CC2(CC[C@@H](N3CCC(c4ccccc4OC[C@@H]4CCOC4)CC3)C2)C1` [Example 7E, oxetan-3-yl((R)-6-(4-(2-(((R)-tetrahydrofuran-3-yl)methoxy)phenyl)piperidin-1-yl)-2-azaspiro[3.4]octan-2-yl)methanone], in experiment [1], the Emax came to 0% and the EC50 was above 25 µM. In experiment [2], the Emax stood at 13% and the EC50 is 1.56 µM.
The like results for `O=C(C1COC1)N1CC2(CC[C@@H](N3CCC(c4ccccc4OCCOC4COC4)CC3)C2)C1` [Example 7EE, (R)-oxetan-3-yl(6-(4-(2-(2-(oxetan-3-yloxy)ethoxy)phenyl)piperidin-1-yl)-2-azaspiro[3.4]octan-2-yl)methanone] were, in that order, 0%, above 25 µM, 0% and above 25 µM.
On the same counts, the results for `CC(C)COc1ccccc1C1CCN([C@@H]2CCC3(C2)CN(C(=O)C2COC2)C3)CC1` [Example 7F, (R)-(6-(4-(2-isobutoxyphenyl)piperidin-1-yl)-2-azaspiro[3.4]octan-2-yl)(oxetan-3-yl)methanone] are 0%, above 25 µM, 0% and above 25 µM.
With `O=C(C1COC1)N1CC2(CC[C@@H](N3CCC(c4ccccc4OC4CCCC4)CC3)C2)C1` [Example 7G, (R)-(6-(4-(2-(cyclopentyloxy)phenyl)piperidin-1-yl)-2-azaspiro[3.4]octan-2-yl)(oxetan-3-yl)methanone], in experiment [1], the Emax came out at 0% and the EC50 is above 25 µM. Moreover, in experiment [2], the Emax is 0% and the EC50 was above 25 µM.
For the compound `O=C(C1COC1)N1CC2(CC[C@@H](N3CCC(c4ccccc4OCCC(F)(F)F)CC3)C2)C1` [Example 7GG, (R)-oxetan-3-yl(6-(4-(2-(3,3,3-trifluoropropoxy)phenyl)piperidin-1-yl)-2-azaspiro[3.4]octan-2-yl)methanone], in experiment [1], the Emax came to 0% and the EC50 is above 25 µM. For the same compound, in experiment [2], the Emax was determined as 14% and the EC50 came to 0.974 µM.
Consider `O=C(C1COC1)N1CC2(CC[C@@H](N3CCC(c4ccccc4OC4CCC4)CC3)C2)C1` [Example 7H, (R)-(6-(4-(2-cyclobutoxyphenyl)piperidin-1-yl)-2-azaspiro[3.4]octan-2-yl)(oxetan-3-yl)methanone], for which, in experiment [1], the Emax worked out at 0% and the EC50 is above 25 µM. For the same compound, in experiment [2], the Emax worked out at 0% and the concentration giving a half-maximal response (EC50) is above 25 µM.
In the case of `COC(C)(C)COc1ccccc1C1CCN([C@@H]2CCC3(C2)CN(C(=O)C2COC2)C3)CC1` [Example 7HH, (R)-(6-(4-(2-(2-methoxy-2-methylpropoxy)phenyl)piperidin-1-yl)-2-azaspiro[3.4]octan-2-yl)(oxetan-3-yl)methanone], the Emax in experiment [1] and in experiment [2] was 0% each time. Besides, the EC50 in experiment [1] and in experiment [2] was above 25 µM each time.
For the compound `O=C(C1COC1)N1CC2(CC[C@@H](N3CCC(c4ccccc4OCC4CC4)CC3)C2)C1` [Example 7I, (R)-(6-(4-(2-(cyclopropylmethoxy)phenyl)piperidin-1-yl)-2-azaspiro[3.4]octan-2-yl)(oxetan-3-yl)methanone], in experiment [1], the Emax turned out to be 0% and the EC50 is above 25 µM. Moreover, in experiment [2], the Emax was determined as 0% and the EC50 is above 25 µM.
As to `O=C(C1COC1)N1CC2(CC[C@@H](N3CCC(c4ccccc4OCC4(C(F)(F)F)CC4)CC3)C2)C1` [Example 7II, (R)-oxetan-3-yl(6-(4-(2-((1-(trifluoromethyl)cyclopropyl)methoxy)phenyl)piperidin-1-yl)-2-azaspiro[3.4]octan-2-yl)methanone], in experiment [1], the Emax was determined as 0% and the EC50 was above 25 µM. In experiment [2], the Emax was found to be 13% and the EC50 was found to be 1.64 µM.
In the case of `CCOc1ccccc1C1CCN([C@@H]2CCC3(C2)CN(C(=O)C2COC2)C3)CC1` [Example 7J, (R)-(6-(4-(2-ethoxyphenyl)piperidin-1-yl)-2-azaspiro[3.4]octan-2-yl)(oxetan-3-yl)methanone], the Emax in experiment [1] and in experiment [2] was 0% throughout.
Take `O=C(C1COC1)N1CC2(CC[C@@H](N3CCC(c4ccccc4OCC(F)F)CC3)C2)C1` [Example 7JJ, (R)-(6-(4-(2-(2,2-difluoroethoxy)phenyl)piperidin-1-yl)-2-azaspiro[3.4]octan-2-yl)(oxetan-3-yl)methanone]: in experiment [1], the Emax worked out at 0% and the EC50 was above 25 µM. Besides, in experiment [2], the Emax stood at 9% and the EC50 amounted to 0.935 µM.
On the same counts, the results for `CC(C)Oc1ccccc1C1CCN([C@@H]2CCC3(C2)CN(C(=O)C2COC2)C3)CC1` [Example 7K, (R)-(6-(4-(2-isopropoxyphenyl)piperidin-1-yl)-2-azaspiro[3.4]octan-2-yl)(oxetan-3-yl)methanone] are 0%, above 25 µM, 0% and above 25 µM.
Take `O=C(C1COC1)N1CC2(CC[C@@H](N3CCC(c4ccccc4OCCC4COC4)CC3)C2)C1` [Example 7KK, (R)-oxetan-3-yl(6-(4-(2-(2-(oxetan-3-yl)ethoxy)phenyl)piperidin-1-yl)-2-azaspiro[3.4]octan-2-yl)methanone]: in experiment [1], the Emax is 0% and the EC50 was above 25 µM. In experiment [2], the Emax was 0% and the concentration giving a half-maximal response (EC50) is above 25 µM.
Turning to `CC(C)(O)COc1ccccc1C1CCN([C@@H]2CCC3(C2)CN(C(=O)C2COC2)C3)CC1` [Example 7L, (R)-(6-(4-(2-(2-hydroxy-2-methylpropoxy)phenyl)piperidin-1-yl)-2-azaspiro[3.4]octan-2-yl)(oxetan-3-yl)methanone], in experiment [1], the Emax came out at 0% and the EC50 was above 25 µM. Further, in experiment [2], the Emax came out at 0% and the EC50 is above 25 µM.
On to `O=C(C1COC1)N1CC2(CC[C@@H](N3CCC(c4ccccc4OC(F)(F)F)CC3)C2)C1` [Example 12A, (R)-oxetan-3-yl(6-(4-(2-(trifluoromethoxy)phenyl)piperidin-1-yl)-2-azaspiro[3.4]octan-2-yl)methanone], for which the Emax in experiment [1] and in experiment [2] was 0% in each case. Further, the EC50 in experiment [1] and in experiment [2] was above 25 µM each time.
